# Measured values from US20040047804A1, “Enhanced radiation therapy” (The General Hospital Corporation, a Massachusetts …, priority 1998, published 2004).
# Where two headings read alike, the source gives them in different places.
# Tests used:
# [1] = system: VX2 tumors
# Protocol: About […] of either a small molecule radiodense material (iohexol) or a large molecule radiodense material (WIN 8883) was injected directly into separate VX2 tumors growing in the thigh of a rabbit. To measure the diffusion time of the two materials in the tumor interstitium, the rabbit was euthanized and the corpus imaged using CT over the next 24 hours to measure the spatial and temporal distribution of each material.
# [2] = system: V79 Chinese Hamster Ovary cancer cells; test: In vitro radiation enhancement, survival of irradiated tumor cells; format: cell-based; conditions: radiation dosage of 9.0 Gy
# Excerpt: The effect of the new radiodense compositions on cancer cells was also studied in vitro. Individual V79 Chinese Hamster Ovary cancer cells were suspended in nutrient medium in test tubes and mixed with a sufficient amount of one of several new radiodense compositions to increase the radiodensity of the cell suspension. […] At a radiation energy level of 12 Gy, about 8×10^-1 cells survived in the nutrient medium alone, while only 1×10^-3 to 1×10^-4 survived in the presence of the radiodense materials.
# [3] = system: VX2 tumors; test: In vivo radiation enhancement, systemic radiodense material plus internal radiation probe; parameters: species or system rabbit; conditions: systemic bolus 3 ml/kg
# Protocol: Three rabbits with VX2 tumors growing in the thigh were used to evaluate the radiation therapy effect of the new radiodense compositions and radiation administered internally. In the first rabbit, iohexol was injected systemically as a bolus in a volume of 3 ml/kg, resulting in a peak enhancement of the leaky edge of the tumor by over 50 HU. Radiation of 30 Gy was administered over 45 minutes using a delivery energy of 40 Kev from the probe tip, which was centered in the tumor. The next day, the rabbit was euthanized following the administration of Evans Blue to demarcate the leaky vasculature of the treated tumor as well as an untreated, control tumor in the opposite thigh. […] All of the viable cells were located in the edge of the treated tumor and this edge of viable cells was much smaller than the rim of viable cells in the untreated tumor. Two additional rabbits were treated with a nearly identical protocol, except that the same radiodense material was given as an intravenous bolus plus a sustaining infusion to keep the leaky portions of the tumor enhanced for the entire duration of the radiation treatment. In these two experiments, no evidence of viable tumor was seen on serial computed tomography studies over the next several days. […]
# [4] = system: human adenocarcinomas (LS 174T); parameters: species or system mice; conditions: mouse, in vivo
# Protocol: Immunologically tolerant mice were implanted with several different human neoplasms. When the tumors reached a size of 1-2 cm, radiodense compositions were injected intratumorally via a percutaneous route using a 27 gauge needle. The mice and their tumors where then serially imaged with computed tomography to determine the local pharmacokinetics of the injectates by measuring the x-ray attenuation (in HU) of regions of interest.
# FIG. 3 is a plot of the temporal change of x-ray attenuation in a mouse bearing a human adenocarcinomas (LS 174T). The radiodense material was a water soluble, small molecule radiodense material (Omnipaque™ with a concentration of 350 mg I/ml as iohexol). A peak contrast of nearly 3000 HU was attained in the center of the tumor, with smaller degrees of contrast enhancement surrounding the injected area. This small molecule was rapidly cleared with values of only 2000 HU at the peak location 60 minutes later.
SMILES,Volume (total number of intratumoral voxels containing at least 200 HU) ([1]; 1.5 Hrs) [voxels],Volume (total number of intratumoral voxels containing at least 200 HU) ([1]; 4.5 Hrs) [voxels],Volume (total number of intratumoral voxels containing at least 200 HU) ([1]; 21.0 Hrs) [voxels],Volume (total number of intratumoral voxels containing at least 200 HU) ([1]; Initial) [voxels],relative effectiveness among the radiodense materials [2],peak enhancement of the leaky edge of the tumor [3],"necrosis of viable tumor cells in the treated leg, compared with the control ([3]; 30 Gy over 45 minutes at 40 Kev from probe centered in tumor, histology next day)",x-ray attenuation at the peak location 60 minutes later [4] [HU]
"CCOC(=O)c1c(I)c(NC(C)=O)c(I)c(NC(C)=O)c1I [Win 8883, ethyl-bis(3,5-acetylamino)-2,4,6-triiodobenzoate]",10898,11826,11682,10420,–,–,–,–
"CC(=O)N(CC(O)CN(C(C)=O)c1c(I)c(C(=O)NCC(O)CO)c(I)c(C(=O)NCC(O)CO)c1I)c1c(I)c(C(=O)NCC(O)CO)c(I)c(C(=O)NCC(O)CO)c1I (stereo not drawn) [iodix, iodixanol]",–,–,–,–,more effective,–,–,–
CC(=O)N(CC(O)CO)c1c(I)c(C(=O)NCC(O)CO)c(I)c(C(=O)NCC(O)CO)c1I (stereo not drawn) [iohexol],23912,22104,44720,12722,–,over 50 HU,about 95%,2000
